Experimental data: ChEMBL document CHEMBL4270481, “ALK5 kinase inhibitory activity and synthesis of 2,3,4-substituted 5,5-dimethyl-5,6-dihydro-4H-pyrrolo[1,2-b]pyrazoles” (Eur J Med Chem, 2017)

Assays:
[1] = molecular target: Proto-oncogene tyrosine-protein kinase Src (Homo sapiens) (UniProt P12931); assay: Inhibition of SRC (unknown origin) assessed as residual enzyme activity at 1 uM relative to untreated control
MCF7 = assay: Cytotoxicity against human MCF7 cells assessed as decrease in cell proliferation after 72 hrs by calcein AM staining-based assay; assay type: functional; details: MCF7, 72 h
[2] = molecular target: Tyrosine-protein kinase BTK (Homo sapiens) (UniProt Q06187); assay: Inhibition of BTK (unknown origin) assessed as residual enzyme activity at 1 uM relative to untreated control
[3] = molecular target: Tyrosine-protein kinase JAK2 (Homo sapiens) (UniProt O60674); assay: Inhibition of JAK2 (unknown origin) assessed as residual enzyme activity at 1 uM relative to untreated control
[4] = molecular target: Serine/threonine-protein kinase PAK 4 (Homo sapiens) (UniProt O96013); assay: Inhibition of PAK4 (unknown origin) assessed as residual enzyme activity at 1 uM relative to untreated control
HeLa = assay: Cytotoxicity against human HeLa cells assessed as decrease in cell proliferation up to 100 uM after 72 hrs by calcein AM staining-based assay
[5] = molecular target: RAC-alpha serine/threonine-protein kinase (Homo sapiens) (UniProt P31749); assay: Inhibition of PKBalpha (unknown origin) assessed as residual enzyme activity at 1 uM relative to untreated control
RAC-alpha serine/threonine-protein kinase (Homo sapiens), sequence (P31749 whole entry): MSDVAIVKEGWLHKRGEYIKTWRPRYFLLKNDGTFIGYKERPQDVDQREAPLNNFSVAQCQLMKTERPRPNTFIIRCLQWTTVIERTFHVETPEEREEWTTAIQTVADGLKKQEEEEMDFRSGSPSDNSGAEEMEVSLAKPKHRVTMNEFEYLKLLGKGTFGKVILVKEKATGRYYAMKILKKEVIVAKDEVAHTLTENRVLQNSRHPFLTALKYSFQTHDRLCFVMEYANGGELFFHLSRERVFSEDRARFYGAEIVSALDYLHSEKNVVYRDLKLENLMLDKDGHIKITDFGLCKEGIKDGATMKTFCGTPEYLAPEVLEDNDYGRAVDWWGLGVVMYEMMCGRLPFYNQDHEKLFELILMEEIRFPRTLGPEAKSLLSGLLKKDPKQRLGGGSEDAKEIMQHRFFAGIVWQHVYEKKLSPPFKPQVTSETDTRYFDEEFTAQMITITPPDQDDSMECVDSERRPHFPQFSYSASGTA

[6] = molecular target: SRSF protein kinase 1 (Homo sapiens) (UniProt Q96SB4); assay: Inhibition of SRPK1 (unknown origin) assessed as residual enzyme activity at 1 uM relative to untreated control
[7] = molecular target: Ribosomal protein S6 kinase alpha-1 (Homo sapiens) (UniProt Q15418); assay: Inhibition of RSK1 (unknown origin) assessed as residual enzyme activity at 1 uM relative to untreated control
Ribosomal protein S6 kinase alpha-1 (Homo sapiens), sequence (Q15418 whole entry): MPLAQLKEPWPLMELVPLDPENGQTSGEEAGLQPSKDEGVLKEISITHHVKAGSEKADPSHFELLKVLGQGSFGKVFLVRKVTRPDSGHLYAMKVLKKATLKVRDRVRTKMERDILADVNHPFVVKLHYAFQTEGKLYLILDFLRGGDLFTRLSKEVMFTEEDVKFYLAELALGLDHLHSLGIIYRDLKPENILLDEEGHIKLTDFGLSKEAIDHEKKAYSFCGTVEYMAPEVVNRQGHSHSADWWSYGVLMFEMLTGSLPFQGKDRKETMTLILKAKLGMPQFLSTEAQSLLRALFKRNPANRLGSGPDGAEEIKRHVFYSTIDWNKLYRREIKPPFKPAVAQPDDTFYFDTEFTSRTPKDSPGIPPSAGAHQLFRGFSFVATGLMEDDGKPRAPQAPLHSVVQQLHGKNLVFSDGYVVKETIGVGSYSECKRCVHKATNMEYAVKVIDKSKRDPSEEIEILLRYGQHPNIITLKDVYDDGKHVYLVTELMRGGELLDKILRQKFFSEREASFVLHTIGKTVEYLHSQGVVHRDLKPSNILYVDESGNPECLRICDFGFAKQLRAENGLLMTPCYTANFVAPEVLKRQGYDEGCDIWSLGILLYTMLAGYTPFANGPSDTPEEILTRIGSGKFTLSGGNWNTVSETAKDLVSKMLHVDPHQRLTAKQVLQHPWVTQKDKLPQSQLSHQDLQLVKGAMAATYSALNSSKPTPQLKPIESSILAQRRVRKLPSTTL

[8] = molecular target: Interleukin-1 receptor-associated kinase 4 (Homo sapiens) (UniProt Q9NWZ3); assay: Inhibition of IRAK4 (unknown origin) assessed as residual enzyme activity at 1 uM relative to untreated control
[9] = molecular target: AMP-activated protein kinase, AMPK (Homo sapiens) (UniProt P54646+O43741+P54619+Q9UGJ0+Q9Y478+Q13131+Q9UGI9); assay: Inhibition of AMPK (unknown origin) assessed as residual enzyme activity at 1 uM relative to untreated control; assay type: protein-complex assay
[10] = molecular target: Ribosomal protein S6 kinase alpha-5 (Homo sapiens) (UniProt O75582); assay: Inhibition of MSK1 (unknown origin) assessed as residual enzyme activity at 1 uM relative to untreated control
Ribosomal protein S6 kinase alpha-5 (Homo sapiens), sequence (O75582 whole entry, looked up): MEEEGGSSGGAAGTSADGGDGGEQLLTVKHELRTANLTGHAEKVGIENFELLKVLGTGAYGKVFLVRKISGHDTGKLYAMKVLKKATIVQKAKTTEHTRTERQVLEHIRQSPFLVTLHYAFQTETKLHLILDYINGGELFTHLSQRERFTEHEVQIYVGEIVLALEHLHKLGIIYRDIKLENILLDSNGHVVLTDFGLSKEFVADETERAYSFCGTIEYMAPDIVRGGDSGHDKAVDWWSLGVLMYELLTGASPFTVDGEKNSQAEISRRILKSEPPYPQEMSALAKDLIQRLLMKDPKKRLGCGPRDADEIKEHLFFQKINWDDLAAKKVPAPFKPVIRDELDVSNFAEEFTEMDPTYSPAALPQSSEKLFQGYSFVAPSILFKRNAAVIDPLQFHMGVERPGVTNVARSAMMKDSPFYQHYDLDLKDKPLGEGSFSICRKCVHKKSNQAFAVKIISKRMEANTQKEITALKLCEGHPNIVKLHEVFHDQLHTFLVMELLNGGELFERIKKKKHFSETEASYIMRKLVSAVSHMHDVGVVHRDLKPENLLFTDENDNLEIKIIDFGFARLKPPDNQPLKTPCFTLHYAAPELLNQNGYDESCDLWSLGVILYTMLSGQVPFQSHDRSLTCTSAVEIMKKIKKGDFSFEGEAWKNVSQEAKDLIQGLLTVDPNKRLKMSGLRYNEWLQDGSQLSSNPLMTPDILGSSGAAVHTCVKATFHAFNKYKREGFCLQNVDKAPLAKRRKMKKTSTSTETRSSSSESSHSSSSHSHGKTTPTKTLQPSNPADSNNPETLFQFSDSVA

[11] = molecular target: Serine/threonine-protein kinase STK11 (Homo sapiens) (UniProt Q15831); assay: Inhibition of LKB1 (unknown origin) assessed as residual enzyme activity at 1 uM relative to untreated control
Serine/threonine-protein kinase STK11 (Homo sapiens), sequence (Q15831 whole entry): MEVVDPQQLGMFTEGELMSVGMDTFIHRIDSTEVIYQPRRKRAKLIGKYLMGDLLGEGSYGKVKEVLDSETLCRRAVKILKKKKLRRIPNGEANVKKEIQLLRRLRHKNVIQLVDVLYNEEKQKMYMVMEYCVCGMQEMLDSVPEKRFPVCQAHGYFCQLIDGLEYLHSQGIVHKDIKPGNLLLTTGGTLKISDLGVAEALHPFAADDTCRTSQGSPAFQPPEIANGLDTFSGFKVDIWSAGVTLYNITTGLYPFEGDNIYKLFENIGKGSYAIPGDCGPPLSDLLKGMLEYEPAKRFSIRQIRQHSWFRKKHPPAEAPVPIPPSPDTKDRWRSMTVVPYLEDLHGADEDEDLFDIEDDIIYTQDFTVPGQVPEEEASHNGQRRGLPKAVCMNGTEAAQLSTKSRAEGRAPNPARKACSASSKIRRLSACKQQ

K562 = assay: Cytotoxicity against human K562 cells assessed as decrease in cell proliferation after 72 hrs by calcein AM staining-based assay; assay type: functional; details: K562, 72 h
[12] = molecular target: Serine/threonine-protein kinase Nek6 (Homo sapiens) (UniProt Q9HC98); assay: Inhibition of NEK6 (unknown origin) assessed as residual enzyme activity at 1 uM relative to untreated control
Serine/threonine-protein kinase Nek6 (Homo sapiens), sequence (Q9HC98 whole entry): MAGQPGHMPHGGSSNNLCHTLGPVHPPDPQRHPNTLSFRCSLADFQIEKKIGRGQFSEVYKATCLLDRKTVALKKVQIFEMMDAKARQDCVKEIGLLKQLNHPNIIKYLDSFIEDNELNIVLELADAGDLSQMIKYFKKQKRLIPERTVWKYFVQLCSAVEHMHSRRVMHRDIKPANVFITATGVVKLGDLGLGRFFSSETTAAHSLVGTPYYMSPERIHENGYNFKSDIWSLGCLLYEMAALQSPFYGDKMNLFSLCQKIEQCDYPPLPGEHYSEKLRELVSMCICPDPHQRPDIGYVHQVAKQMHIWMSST

[13] = molecular target: Homeodomain-interacting protein kinase 2 (Homo sapiens) (UniProt Q9H2X6); assay: Inhibition of HIPK2 (unknown origin) assessed as residual enzyme activity at 1 uM relative to untreated control
[14] = molecular target: Mitogen-activated protein kinase 14 (Homo sapiens) (UniProt Q16539); assay: Inhibition of p38alpha (unknown origin) assessed as residual enzyme activity at 1 uM relative to untreated control
[15] = molecular target: Serine/threonine-protein kinase D1 (Homo sapiens) (UniProt Q15139); assay: Inhibition of PKD1 (unknown origin) assessed as residual enzyme activity at 1 uM relative to untreated control
[16] = molecular target: Casein kinase I isoform delta (Homo sapiens) (UniProt P48730); assay: Inhibition of CK1delta (unknown origin) assessed as residual enzyme activity at 1 uM relative to untreated control
[17] = molecular target: Aurora kinase B (Homo sapiens) (UniProt Q96GD4); assay: Inhibition of Aurora B (unknown origin) assessed as residual enzyme activity at 1 uM relative to untreated control
[18] = molecular target: Mitogen-activated protein kinase 8 (Homo sapiens) (UniProt P45983); assay: Inhibition of JNK1 (unknown origin) assessed as residual enzyme activity at 1 uM relative to untreated control
Mitogen-activated protein kinase 8 (Homo sapiens), sequence (P45983 whole entry): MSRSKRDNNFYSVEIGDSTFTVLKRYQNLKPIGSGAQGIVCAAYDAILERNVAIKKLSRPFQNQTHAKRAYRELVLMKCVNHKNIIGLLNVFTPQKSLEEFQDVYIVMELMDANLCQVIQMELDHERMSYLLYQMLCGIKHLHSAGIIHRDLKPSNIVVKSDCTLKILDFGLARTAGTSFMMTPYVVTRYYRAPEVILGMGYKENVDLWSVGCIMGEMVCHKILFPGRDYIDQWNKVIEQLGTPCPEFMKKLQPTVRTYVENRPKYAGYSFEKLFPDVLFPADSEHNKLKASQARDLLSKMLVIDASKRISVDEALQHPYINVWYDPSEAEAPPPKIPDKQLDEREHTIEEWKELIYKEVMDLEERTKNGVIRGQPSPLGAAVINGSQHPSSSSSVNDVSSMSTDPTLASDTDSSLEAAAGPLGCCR

[19] = molecular target: Rho-associated protein kinase 2 (Homo sapiens) (UniProt O75116); assay: Inhibition of ROCK2 (unknown origin) assessed as residual enzyme activity at 1 uM relative to untreated control
[20] = molecular target: Cyclin-dependent kinase 2/cyclin E1 (Homo sapiens, UniProt P24941); assay: Inhibition of human CDK2/cyclin E expressed in Sf9 insect cells using histone H1 as substrate in presence of [gamma-33P]ATP; assay type: cell-based
[21] = molecular target: Serine/threonine-protein kinase N2 (Homo sapiens) (UniProt Q16513); assay: Inhibition of PRK2 (unknown origin) assessed as residual enzyme activity at 1 uM relative to untreated control
BJ = assay: Cytotoxicity against human BJ cells assessed as decrease in cell proliferation up to 100 uM after 72 hrs by calcein AM staining-based assay
[22] = molecular target: Serine/threonine-protein kinase pim-1 (Homo sapiens) (UniProt P11309); assay: Inhibition of PIM1 (unknown origin) assessed as residual enzyme activity at 1 uM relative to untreated control
[23] = molecular target: Myosin light chain kinase, smooth muscle (Homo sapiens) (UniProt Q15746); assay: Inhibition of SmMLCK (unknown origin) assessed as residual enzyme activity at 1 uM relative to untreated control
[24] = molecular target: Serine/threonine-protein kinase 3 (Homo sapiens) (UniProt Q13188); assay: Inhibition of MST2 (unknown origin) assessed as residual enzyme activity at 1 uM relative to untreated control
[25] = molecular target: High affinity nerve growth factor receptor (Homo sapiens) (UniProt P04629); assay: Inhibition of TRKA (unknown origin) assessed as residual enzyme activity at 1 uM relative to untreated control
[26] = molecular target: Eukaryotic elongation factor 2 kinase (Homo sapiens) (UniProt O00418); assay: Inhibition of EF2K (unknown origin) assessed as residual enzyme activity at 1 uM relative to untreated control
Eukaryotic elongation factor 2 kinase (Homo sapiens), sequence (O00418 whole entry): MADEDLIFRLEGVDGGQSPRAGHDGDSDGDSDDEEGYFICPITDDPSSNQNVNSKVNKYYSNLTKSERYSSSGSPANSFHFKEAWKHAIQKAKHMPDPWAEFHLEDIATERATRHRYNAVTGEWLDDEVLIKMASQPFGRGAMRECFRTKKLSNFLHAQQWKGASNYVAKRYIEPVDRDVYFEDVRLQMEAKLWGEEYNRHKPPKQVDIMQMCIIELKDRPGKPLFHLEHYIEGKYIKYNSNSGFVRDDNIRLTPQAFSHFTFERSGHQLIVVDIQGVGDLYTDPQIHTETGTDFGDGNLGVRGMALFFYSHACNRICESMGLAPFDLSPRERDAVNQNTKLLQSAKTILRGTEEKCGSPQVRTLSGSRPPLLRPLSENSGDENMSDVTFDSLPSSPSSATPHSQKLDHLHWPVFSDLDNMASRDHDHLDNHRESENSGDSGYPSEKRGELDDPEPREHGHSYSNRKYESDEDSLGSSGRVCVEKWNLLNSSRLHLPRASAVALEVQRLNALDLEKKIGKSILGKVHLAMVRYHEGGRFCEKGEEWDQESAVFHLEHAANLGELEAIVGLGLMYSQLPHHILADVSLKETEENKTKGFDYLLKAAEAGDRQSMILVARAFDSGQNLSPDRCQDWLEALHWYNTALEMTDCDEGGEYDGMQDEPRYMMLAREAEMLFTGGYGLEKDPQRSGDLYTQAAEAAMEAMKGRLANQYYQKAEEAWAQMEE

[27] = molecular target: MAP/microtubule affinity-regulating kinase 3 (Homo sapiens) (UniProt P27448); assay: Inhibition of MARK3 (unknown origin) assessed as residual enzyme activity at 1 uM relative to untreated control
[28] = molecular target: Calcium/calmodulin-dependent protein kinase type 1 (Homo sapiens) (UniProt Q14012); assay: Inhibition of CAMK1 (unknown origin) assessed as residual enzyme activity at 1 uM relative to untreated control
[29] = molecular target: Glycogen synthase kinase-3 beta (Homo sapiens) (UniProt P49841); assay: Inhibition of GSK3beta (unknown origin) assessed as residual enzyme activity at 1 uM relative to untreated control
[30] = molecular target: Ephrin type-A receptor 2 (Homo sapiens) (UniProt P29317); assay: Inhibition of EPHA2 (unknown origin) assessed as residual enzyme activity at 1 uM relative to untreated control
Ephrin type-A receptor 2 (Homo sapiens), sequence (P29317 whole entry): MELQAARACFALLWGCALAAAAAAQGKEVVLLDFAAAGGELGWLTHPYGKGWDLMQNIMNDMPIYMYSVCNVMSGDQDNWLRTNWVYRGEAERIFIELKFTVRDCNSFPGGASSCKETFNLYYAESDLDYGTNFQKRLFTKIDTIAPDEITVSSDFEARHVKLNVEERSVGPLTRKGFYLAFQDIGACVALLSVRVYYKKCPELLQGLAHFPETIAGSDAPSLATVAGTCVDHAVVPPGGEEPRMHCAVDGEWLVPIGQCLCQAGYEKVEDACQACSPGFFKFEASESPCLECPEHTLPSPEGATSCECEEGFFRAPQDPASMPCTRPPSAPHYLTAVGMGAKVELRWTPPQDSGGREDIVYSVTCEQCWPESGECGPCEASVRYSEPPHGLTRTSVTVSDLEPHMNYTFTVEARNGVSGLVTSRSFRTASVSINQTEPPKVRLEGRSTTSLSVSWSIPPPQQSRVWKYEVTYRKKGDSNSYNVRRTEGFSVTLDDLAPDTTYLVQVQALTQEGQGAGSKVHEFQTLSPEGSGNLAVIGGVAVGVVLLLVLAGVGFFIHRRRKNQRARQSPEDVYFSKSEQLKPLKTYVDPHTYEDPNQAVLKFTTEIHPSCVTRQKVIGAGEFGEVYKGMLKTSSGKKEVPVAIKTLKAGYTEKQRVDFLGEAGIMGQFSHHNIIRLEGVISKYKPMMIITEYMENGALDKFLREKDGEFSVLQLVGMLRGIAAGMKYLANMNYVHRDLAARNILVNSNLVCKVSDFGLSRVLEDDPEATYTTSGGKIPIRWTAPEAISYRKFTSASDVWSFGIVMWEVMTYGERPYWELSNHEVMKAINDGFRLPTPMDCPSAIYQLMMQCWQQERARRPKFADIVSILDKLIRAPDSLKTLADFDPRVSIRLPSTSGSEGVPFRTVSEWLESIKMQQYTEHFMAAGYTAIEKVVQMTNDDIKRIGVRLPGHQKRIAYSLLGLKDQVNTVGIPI

[31] = molecular target: Dual specificity mitogen-activated protein kinase kinase 1 (Homo sapiens) (UniProt Q02750); assay: Inhibition of MKK1 (unknown origin) assessed as residual enzyme activity at 1 uM relative to untreated control

Activity [1]: > 80% | Activity [2]: > 80% | Activity [3]: > 80% | Activity [4]: > 80% | Activity [5]: > 80% | Activity [6]: > 80% | Activity [7]: 60 to 80% | Activity [8]: > 80% | Activity [9]: > 80% | Activity [10]: > 80% | Activity [11]: > 80% | Activity [12]: > 80% | Activity [13]: > 80% | Activity [14]: 9% | Activity [15]: 12% | Activity [16]: 34% | Activity [17]: > 80% | Activity [18]: > 80% | Activity [19]: > 80% | IC50 [20]: > 100 µM | Activity [21]: > 80% | Activity [22]: > 80% | Activity [23]: > 80% | Activity [24]: > 80% | Activity [25]: > 80% | Activity [26]: > 80% | Activity [27]: > 80% | Activity [28]: > 80% | Activity [29]: 60 to 80% | Activity [30]: > 80% | Activity [31]: > 80%
Compound: Cc1cccc(-c2nn3c(c2-c2ccc(O)cc2)C(C)C(C)(C)C3)n1 (stereo not given)
IC50 (MCF7): > 100 µM | Activity (HeLa): Non-Toxic | IC50 (K562): > 100 µM | Activity (BJ): Non-Toxic
